From ChEMBL document CHEMBL5260813, “An overview on the recent developments of 1,2,4-triazine derivatives as anticancer compounds” (Eur J Med Chem, 2017)
pIC50: −log10 of the molar value. In brackets after ≈: the same amount, converted by molar mass.

Tests used:
[1] = test system: HT-29; experiment: Antiproliferative activity against human HT-29 cells assessed as inhibition of cell growth under hypoxia condition by SRB assay; assay type: functional, cell-based
[2] = test system: SCC-7; experiment: Anticlonogenic activity against mouse SCC-7 cells assessed as inhibition of colony formation under hypoxic condition by clonogenic survival assay; assay type: functional
[3] = test system: SCC-7; experiment: Anticlonogenic activity against mouse SCC-7 cells assessed as inhibition of colony formation under aerobic condition by clonogenic survival assay; assay type: functional
[4] = test system: HT-29; experiment: Antiproliferative activity against human HT-29 cells assessed as inhibition of cell growth under normoxia condition by SRB assay; assay type: functional, cell-based
[5] = biological target: Vascular endothelial growth factor receptor 2 (Homo sapiens, UniProt P35968); experiment: Inhibition of VEGFR-2 (unknown origin)
[6] = biological target: T1, Tyrosine-protein kinase SYK (Homo sapiens, UniProt P43405); experiment: Inhibition of human SYK using 5-Fluo-Ahx-GAPDYENLQELNKK-Amid as substrate in presence of ATP by microfluidic mobility shift assay
[7] = biological target: T1, Tyrosine-protein kinase SYK; experiment: Inhibition of SYK in human Ramos cells assessed as reduction in anti IgM-induced phosphorylation of BLNK by flow cytometry assay; assay type: cell-based
[8] = test system: HT-29; experiment: Antiproliferative activity against human HT-29 cells assessed as inhibition of cell growth by SRB assay; assay type: functional, cell-based
[9] = test system: HT-29; experiment: Potency index, ratio of tirapazamine IC50 to compound IC50 for antiproliferative activity against human HT-29 cells; assay type: functional
[10] = biological target: Cyclin-dependent kinase 2/cyclin E1 (Homo sapiens, UniProt P24941); experiment: Inhibition of CDK2/cyclin E1 (unknown origin) expressed in Sf9 cells
[11] = biological target: T2, Tyrosine-protein kinase JAK3 (Homo sapiens, UniProt P52333); experiment: Inhibition of JAK3 (unknown origin)
T2 sequence (P52333 whole entry): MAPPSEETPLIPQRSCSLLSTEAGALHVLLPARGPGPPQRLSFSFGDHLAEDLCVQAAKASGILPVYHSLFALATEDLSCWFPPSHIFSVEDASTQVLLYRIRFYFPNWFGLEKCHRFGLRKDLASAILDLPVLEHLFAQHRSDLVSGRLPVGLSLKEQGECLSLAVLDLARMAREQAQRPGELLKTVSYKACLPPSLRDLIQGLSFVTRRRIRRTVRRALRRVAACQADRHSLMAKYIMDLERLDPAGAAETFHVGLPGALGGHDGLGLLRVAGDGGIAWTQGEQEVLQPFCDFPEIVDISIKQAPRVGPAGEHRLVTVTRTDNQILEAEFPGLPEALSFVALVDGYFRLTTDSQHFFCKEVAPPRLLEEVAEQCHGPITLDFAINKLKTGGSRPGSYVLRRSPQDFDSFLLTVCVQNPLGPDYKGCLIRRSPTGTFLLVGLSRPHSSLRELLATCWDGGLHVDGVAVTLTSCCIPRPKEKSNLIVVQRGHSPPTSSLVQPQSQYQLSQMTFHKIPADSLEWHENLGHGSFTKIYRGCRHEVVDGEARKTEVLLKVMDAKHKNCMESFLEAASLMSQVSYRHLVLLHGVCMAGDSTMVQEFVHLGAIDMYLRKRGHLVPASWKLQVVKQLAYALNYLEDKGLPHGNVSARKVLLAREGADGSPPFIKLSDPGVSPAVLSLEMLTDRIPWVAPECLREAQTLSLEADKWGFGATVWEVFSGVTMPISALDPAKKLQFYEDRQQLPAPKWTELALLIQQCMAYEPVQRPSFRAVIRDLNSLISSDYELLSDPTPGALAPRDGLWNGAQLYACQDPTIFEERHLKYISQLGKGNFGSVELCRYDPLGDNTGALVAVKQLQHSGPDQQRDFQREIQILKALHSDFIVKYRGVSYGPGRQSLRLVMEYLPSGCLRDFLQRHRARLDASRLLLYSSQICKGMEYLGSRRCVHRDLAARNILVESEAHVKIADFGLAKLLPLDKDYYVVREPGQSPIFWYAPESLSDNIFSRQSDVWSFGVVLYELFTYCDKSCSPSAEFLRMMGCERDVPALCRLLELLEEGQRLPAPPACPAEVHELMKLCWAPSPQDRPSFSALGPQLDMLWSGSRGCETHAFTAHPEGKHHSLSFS

[12] = biological target: Tyrosine-protein kinase JAK2 (Homo sapiens, UniProt O60674); experiment: Inhibition of JAK2 (unknown origin)
[13] = test system: MCF7; experiment: Antiproliferative activity against human MCF7 cells assessed as inhibition of cell growth; assay type: functional, cell-based
[14] = test system: HCT-116; experiment: Antiproliferative activity against human HCT-116 cells assessed as inhibition of cell growth; assay type: functional, cell-based

Tyrosine-protein kinase JAK2, sequence (O60674 whole entry): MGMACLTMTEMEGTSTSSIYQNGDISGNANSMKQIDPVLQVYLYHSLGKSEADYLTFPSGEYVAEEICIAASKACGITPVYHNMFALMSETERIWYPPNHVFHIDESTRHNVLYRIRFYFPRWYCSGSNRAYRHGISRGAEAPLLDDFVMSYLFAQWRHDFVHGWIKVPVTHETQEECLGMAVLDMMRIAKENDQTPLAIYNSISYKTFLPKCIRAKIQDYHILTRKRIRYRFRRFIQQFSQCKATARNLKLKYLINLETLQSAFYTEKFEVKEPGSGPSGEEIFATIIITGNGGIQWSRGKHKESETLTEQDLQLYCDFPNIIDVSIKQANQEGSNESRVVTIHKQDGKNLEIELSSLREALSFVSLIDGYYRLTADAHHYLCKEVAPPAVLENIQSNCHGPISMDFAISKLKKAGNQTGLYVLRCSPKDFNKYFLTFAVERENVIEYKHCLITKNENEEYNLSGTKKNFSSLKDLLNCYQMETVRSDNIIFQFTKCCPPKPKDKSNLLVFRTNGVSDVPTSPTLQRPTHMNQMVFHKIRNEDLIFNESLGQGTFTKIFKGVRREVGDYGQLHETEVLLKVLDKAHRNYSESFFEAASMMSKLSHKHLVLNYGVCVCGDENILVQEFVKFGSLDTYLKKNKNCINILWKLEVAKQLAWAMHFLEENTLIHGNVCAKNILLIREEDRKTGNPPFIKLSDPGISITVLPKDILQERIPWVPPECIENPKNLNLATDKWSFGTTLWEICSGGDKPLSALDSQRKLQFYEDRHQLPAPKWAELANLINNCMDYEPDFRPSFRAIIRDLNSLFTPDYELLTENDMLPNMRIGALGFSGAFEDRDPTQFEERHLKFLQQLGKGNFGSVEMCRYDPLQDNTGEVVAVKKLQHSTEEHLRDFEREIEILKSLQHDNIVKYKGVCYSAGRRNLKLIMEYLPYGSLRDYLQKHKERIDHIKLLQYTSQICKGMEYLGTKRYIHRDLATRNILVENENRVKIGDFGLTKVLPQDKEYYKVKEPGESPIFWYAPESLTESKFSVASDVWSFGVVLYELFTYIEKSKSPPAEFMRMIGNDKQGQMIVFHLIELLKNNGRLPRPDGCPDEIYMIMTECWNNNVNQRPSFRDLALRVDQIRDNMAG
Vascular endothelial growth factor receptor 2, sequence (P35968 whole entry): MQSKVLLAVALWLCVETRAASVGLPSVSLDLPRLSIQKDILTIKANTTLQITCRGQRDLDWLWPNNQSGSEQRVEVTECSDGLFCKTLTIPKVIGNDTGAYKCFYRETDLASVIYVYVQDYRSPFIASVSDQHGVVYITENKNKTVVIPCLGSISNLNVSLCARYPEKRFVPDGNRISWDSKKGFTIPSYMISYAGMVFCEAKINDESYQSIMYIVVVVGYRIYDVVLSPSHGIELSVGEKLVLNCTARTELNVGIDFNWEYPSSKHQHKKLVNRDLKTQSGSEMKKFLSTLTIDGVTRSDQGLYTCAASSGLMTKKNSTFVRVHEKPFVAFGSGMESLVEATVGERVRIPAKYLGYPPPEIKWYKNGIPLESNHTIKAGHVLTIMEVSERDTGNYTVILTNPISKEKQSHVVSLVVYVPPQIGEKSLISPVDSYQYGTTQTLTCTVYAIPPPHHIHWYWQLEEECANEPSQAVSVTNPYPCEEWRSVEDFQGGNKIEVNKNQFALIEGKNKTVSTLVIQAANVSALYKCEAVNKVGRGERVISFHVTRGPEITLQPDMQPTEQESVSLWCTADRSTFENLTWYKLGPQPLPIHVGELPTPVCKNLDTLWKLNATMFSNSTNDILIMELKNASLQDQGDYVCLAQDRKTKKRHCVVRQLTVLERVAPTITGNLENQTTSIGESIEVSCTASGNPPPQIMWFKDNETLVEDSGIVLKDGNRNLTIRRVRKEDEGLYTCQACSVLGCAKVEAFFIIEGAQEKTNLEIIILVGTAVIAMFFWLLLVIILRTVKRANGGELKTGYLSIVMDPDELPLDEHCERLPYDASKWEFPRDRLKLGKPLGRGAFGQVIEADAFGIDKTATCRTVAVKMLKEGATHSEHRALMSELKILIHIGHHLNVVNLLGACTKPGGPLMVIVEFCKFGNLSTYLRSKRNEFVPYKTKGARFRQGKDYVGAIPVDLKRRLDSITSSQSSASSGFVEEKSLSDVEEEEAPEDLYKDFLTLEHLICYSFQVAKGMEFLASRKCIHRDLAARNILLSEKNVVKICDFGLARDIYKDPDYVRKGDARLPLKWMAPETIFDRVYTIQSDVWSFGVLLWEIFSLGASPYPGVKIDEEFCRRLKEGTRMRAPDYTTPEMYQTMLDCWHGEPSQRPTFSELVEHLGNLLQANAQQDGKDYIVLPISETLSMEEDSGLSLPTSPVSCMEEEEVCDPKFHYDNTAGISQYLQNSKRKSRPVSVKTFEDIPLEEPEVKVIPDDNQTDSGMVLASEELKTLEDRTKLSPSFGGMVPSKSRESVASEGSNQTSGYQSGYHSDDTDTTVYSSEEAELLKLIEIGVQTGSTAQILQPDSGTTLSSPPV

Row | SMILES | pIC50 [1] | C10 [2] | C10 [3] | pIC50 [4] | other results
1 | O=C(NCCNCCNc1n[n+]([O-])c2ccccc2[n+]1[O-])c1cccc2cc3ccccc3nc12 | 7.80 | 0.18 µM | 6.4 µM | 6.22 | 
2 | Cc1cccc2nc3cccc(C(=O)NCCCN(C)CCCNc4n[n+]([O-])c5ccccc5[n+]4[O-])c3nc12 | 7.80 | 0.18 µM | 6.4 µM | 6.22 | 
3 | CN(CCCNC(=O)c1cccc2ccc(-c3ccncc3)nc12)CCCNc1n[n+]([O-])c2ccccc2[n+]1[O-] | 7.80 | 0.18 µM | 6.4 µM | 6.22 | 
4 | O=C(NCCOCCNc1n[n+]([O-])c2ccccc2[n+]1[O-])c1cccc2cc3ccccc3nc12 | 7.80 | 0.18 µM | 6.4 µM | 6.22 | 
5 | CN(CCNC(=O)c1cccc2cc3ccccc3nc12)CCNc1n[n+]([O-])c2ccccc2[n+]1[O-] | 7.80 | 0.18 µM | 6.4 µM | 6.22 | 
6 | CN(CCCNC(=O)c1cccc2cccnc12)CCCNc1n[n+]([O-])c2ccccc2[n+]1[O-] | 7.80 | 0.18 µM | 6.4 µM | 6.22 | 
7 | CN(CCCNC(=O)c1cccc2nc3ccccc3nc12)CCCNc1n[n+]([O-])c2ccccc2[n+]1[O-] | 7.80 | 0.18 µM | 6.4 µM | 6.22 | 
8 | Cc1ccc(Nc2ncnn3c(C)ccc23)cc1O |  |  |  |  | pIC50 [5]: 4.53
9 | NC(=O)c1nnc(N[C@@H]2CCCC[C@@H]2N)nc1Nc1cccc2[nH]ccc12 |  |  |  |  | pIC50 [6]: 9.10
10 | Cc1cccc2cc3cccc(C(=O)NCCCN(C)CCCNc4n[n+]([O-])c5ccccc5[n+]4[O-])c3nc12 | 7.80 | 0.18 µM | 6.4 µM | 6.22 | 
11 | CN(CCCNC(=O)c1cccc2cc3ccccc3nc12)CCCNc1n[n+]([O-])c2ccccc2[n+]1[O-] | 7.80 | 0.18 µM | 6.4 µM | 6.22 | 
12 | NC(=O)c1nnc(N[C@@H]2CCCC[C@@H]2N)nc1Nc1cccc2c(Cl)c[nH]c12 |  |  |  |  | pIC50 [6]: 9.10; pIC50 [7]: 7.85
13 | NC(=O)c1nnc(N[C@@H]2CCCC[C@@H]2N)nc1Nc1cc(F)cc2cc[nH]c12 |  |  |  |  | pIC50 [6]: 9.10; pIC50 [7]: 7.85
14 | Cc1c[nH]c2c(Nc3nc(N[C@@H]4CCCC[C@@H]4N)nnc3C(N)=O)cccc12 |  |  |  |  | pIC50 [6]: 9.10; pIC50 [7]: 7.85
15 | Cn1ncc2c(Nc3nc(N[C@@H]4CCCC[C@@H]4N)nnc3C(N)=O)cccc21 |  |  |  |  | pIC50 [6]: 9.10; pIC50 [7]: 7.85
16 | NC(=O)c1nnc(N[C@@H]2CCCC[C@@H]2N)nc1Nc1cccc2[nH]ncc12 |  |  |  |  | pIC50 [6]: 9.10; pIC50 [7]: 7.85
17 | Cc1c[nH]c2c(Nc3nc(N[C@@H]4CCCC[C@@H]4N)nnc3C(N)=O)cc(F)cc12 |  |  |  |  | pIC50 [7]: 7.85
18 | O=C(NCCCNCCCNc1n[n+]([O-])c2ccccc2[n+]1[O-])c1cccc2cc3ccccc3nc12 | 7.80 | 0.18 µM | 6.4 µM | 6.22 | 
19 | Nc1nc2ccccc2[n+]([O-])n1 |  |  |  |  | pIC50 [8]: < 6.30; Ratio IC50 [9]: 2
20 | Oc1ccc(-n2nc(-c3cc(O)c(O)c(O)c3)c3nc(-c4ccc(Cl)cc4)nnc32)cc1 |  |  |  |  | pIC50 [10]: < 4.70
21 | Oc1cc(-c2nn(-c3ccc(Cl)cc3)c3nnc(-c4ccc(Cl)cc4)nc23)cc(O)c1O |  |  |  |  | pIC50 [10]: < 4.70
22 | Oc1ccc(-n2nc(-c3cc(O)c(O)c(O)c3)c3nc(-c4ccccc4)nnc32)cc1 |  |  |  |  | pIC50 [10]: 4.85
23 | CC(C)C(Nc1cnnc(-c2c[nH]c3ncc(F)cc23)n1)C(=O)NCC(C)(C)C (centres undefined) |  |  |  |  | pIC50 [11]: ≥ 8.00; pIC50 [12]: ≥ 8.00
24 | COc1cc(Cc2nc(-c3ccccc3)nn3cnnc23)cc(OC)c1OC |  |  |  |  | IC50 [13]: 0.74 µg/mL (≈ 1.96 µM); IC50 [14]: 0.74 µg/mL (≈ 1.96 µM)
25 | N#CCNc1nc2ccccc2[n+]([O-])n1 |  |  |  |  | pIC50 [8]: < 6.52; Ratio IC50 [9]: 1.9
26 | Oc1ccccc1-n1nc(-c2cc(O)c(O)c(O)c2)c2nc(-c3ccc(Cl)cc3)nnc21 |  |  |  |  | pIC50 [10]: < 4.70
27 | CC(C)C(Nc1cnnc(-c2c[nH]c3ncc(Cl)cc23)n1)C(=O)NCC(C)(C)C (centres undefined) |  |  |  |  | pIC50 [11]: ≥ 8.00; pIC50 [12]: ≥ 8.00
28 | CC(C)(C)CNC(=O)C(C)(C)Nc1cnnc(-c2c[nH]c3ncc(F)cc23)n1 |  |  |  |  | pIC50 [11]: ≥ 8.00; pIC50 [12]: ≥ 8.00
